Assay [1] has as its target T1, purified recombinant human GAC (GLS1) (Homo sapiens, UniProt O94925).
T1 sequence (O94925 55-598 isoform O94925-3 limits assumed): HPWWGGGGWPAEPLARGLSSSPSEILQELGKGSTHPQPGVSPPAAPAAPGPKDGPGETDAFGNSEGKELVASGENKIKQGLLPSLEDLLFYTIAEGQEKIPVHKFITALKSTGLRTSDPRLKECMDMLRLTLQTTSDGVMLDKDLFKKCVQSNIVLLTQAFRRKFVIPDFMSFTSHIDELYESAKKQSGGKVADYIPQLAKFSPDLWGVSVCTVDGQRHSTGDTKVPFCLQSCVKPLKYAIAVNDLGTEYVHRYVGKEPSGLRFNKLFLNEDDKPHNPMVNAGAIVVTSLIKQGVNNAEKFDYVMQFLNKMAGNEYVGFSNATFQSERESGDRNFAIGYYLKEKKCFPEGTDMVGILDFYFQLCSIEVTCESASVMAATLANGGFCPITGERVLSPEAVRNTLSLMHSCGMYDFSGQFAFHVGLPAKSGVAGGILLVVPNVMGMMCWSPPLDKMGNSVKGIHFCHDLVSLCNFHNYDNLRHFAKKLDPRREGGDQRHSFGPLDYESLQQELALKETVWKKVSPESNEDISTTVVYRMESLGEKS
Put plainly: GLS1 Enzymatic Activity Assay (dual-coupled enzymatic assay). The class given is biochemical. The procedure, abridged:
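In this coupled fluorometric format, phosphate-activated GAC (2 nM, 50 mM phosphate) is pre-exposed to compound for 10 min before 1 mM glutamine addition. Product is tracked as resorufin (530/590 nm) over time or at 20 min, and potency is derived by logistic fitting.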

For assay [2], the system named is A549 cells. Put plainly: Proliferation Assay (A549 cell viability, Cell Titer Fluor). The class given is cell-based. The settings on record: Homo sapiens, 72 hours. The procedure, abridged: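 1000 A549 cells/well, RPMI 1640/10% dialyzed FBS, 24 h attach; compound 72 h, 0.5% DMSO, 37 °C/5% CO2; Cell Titer Fluor fluorescence; EC50 via 4-parameter logistic.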

Structures are written as SMILES.

What is called IC50 is the concentration needed to halve the response being measured. What is called EC50 is the concentration that produces a half-maximal response. The low end stands for greater potency, the high end for weaker potency. As for `CNC(=O)c1cccc(-c2c(C3CC3)[nH]c3nnc(CCCCn4cc(C(=O)NCc5ccc(C)nc5)nn4)cc23)c1` [Example 158, 1-(4-{6-cyclopropyl-5-[3-(methylcarbamoyl)phenyl]-7H-pyrrolo[2,3-c]pyridazin-3-yl}butyl)-N-[(6-methylpyridin-3-yl)methyl]-1H-1,2,3-triazole-4-carboxamide], in assay [1], the IC50 is below 100 nM. The compound also yielded an EC50 in assay [2] of 500 to 5000 nM.
For `O=C(NCc1ccccn1)c1cn(CCCCc2cc3c(-c4ccc5c(c4)OCO5)c(C4CC4)[nH]c3nn2)nn1` [Example 145, 1-{4-[5-(2H-1,3-benzodioxol-5-yl)-6-cyclopropyl-7H-pyrrolo[2,3-c]pyridazin-3-yl]butyl}-N-(pyridin-2-ylmethyl)-1H-1,2,3-triazole-4-carboxamide], in that order: below 100 nM and 100 to 500 nM.
For `Cc1ccc(CNC(=O)c2cn(CCCCc3cc4cc(-c5ccccc5C(F)(F)F)[nH]c4nn3)nn2)cn1` [Example 215, N-[(6-methylpyridin-3-yl)methyl]-1-(4-{6-[2-(trifluoromethyl)phenyl]-7H-pyrrolo[2,3-c]pyridazin-3-yl}butyl)-1H-1,2,3-triazole-4-carboxamide], in that order: below 100 nM and 100 to 500 nM.
In the same order, the values of `O=C(NCc1cc(OC(F)(F)F)ccc1F)c1cn(CCCCc2cc3c(-c4ccncc4)c(C4CC4)[nH]c3nn2)nn1` [Example 128, 1-{4-[6-cyclopropyl-5-(pyridin-4-yl)-7H-pyrrolo[2,3-c]pyridazin-3-yl]butyl)-N-{[2-fluoro-5-(trifluoromethoxy)phenyl]methyl}-1H-1,2,3-triazole-4-carboxamide] are below 100 nM and below 100 nM.
Regarding `O=C(NCc1ccncc1)c1cn(CCCCc2cc3cc(C4CC4)[nH]c3nn2)nn1` [Example 37, 1-(4-{6-cyclopropyl-7H-pyrrolo[2,3-c]pyridazin-3-yl}butyl)-N-(pyridin-4-ylmethyl)-1H-1,2,3-triazole-4-carboxamide], the 50% inhibitory concentration (IC50) in assay [1] fell in the range of 100 to 500 nM. Further, the EC50 in assay [2] lay within 500 to 5000 nM.
For the compound `Cc1ccc(CNC(=O)c2cn(CCCCc3cc4c(-c5ccc6c(c5)OCO6)c(C5CC5)[nH]c4nn3)nn2)cn1` [Example 146, 1-{4-[5-(2H-1,3-benzodioxol-5-yl)-6-cyclopropyl-7H-pyrrolo[2,3-c]pyridazin-3-yl]butyl}-N-[(6-methylpyridin-3-yl)methyl]-1H-1,2,3-triazole-4-carboxamide], the IC50 in assay [1] is below 100 nM. Besides, the concentration giving a half-maximal response (EC50) in assay [2] was below 100 nM.
Take `O=C(NCc1ccccn1)c1cn(CCCCc2cc3c(Cc4ccc5ccccc5c4)c(C4CC4)[nH]c3nn2)nn1` [Example 101, 1-{4-[6-cyclopropyl-5-(naphthalen-2-ylmethyl)-7H-pyrrolo[2,3-c]pyridazin-3-yl]butyl}-N-(pyridin-2-ylmethyl)-1H-1,2,3-triazole-4-carboxamide]: in assay [1], the IC50 was below 100 nM. In assay [2], this compound registered an EC50 of 100 to 500 nM.
In the same order, the values of `O=C(NCc1cc(OC(F)(F)F)ccc1F)c1cn(CCCCc2cc3cc(C4CN(C(=O)OCC(F)(F)F)C4)[nH]c3nn2)nn1` [Example 148, 2,2,2-trifluoroethyl 3-(3-{4-[4-({[2-fluoro-5-(trifluoromethoxy)phenyl]methyl}carbamoyl)-1H-1,2,3-triazol-1-yl]butyl}-7H-pyrrolo[2,3-c]pyridazin-6-yl)azetidine-1-carboxylate] are below 100 nM and below 100 nM.
In the case of `CCOC(=O)c1nnc(CCCCc2cc3cc(C4CC4)[nH]c3nn2)s1` [Example 115, ethyl 5-(4-{6-cyclopropyl-7H-pyrrolo[2,3-c]pyridazin-3-yl}butyl)-1,3,4-thiadiazole-2-carboxylate], the concentration for half-maximal inhibition (IC50) in assay [1] was 100 to 500 nM. The compound also returned an EC50 in assay [2] of 500 to 5000 nM.
For the compound `Cc1ccc(CNC(=O)c2cn(CCCCc3cc4cc(-c5ccccc5Cl)[nH]c4nn3)nn2)cn1` [Example 236, 1-{4-[6-(2-chlorophenyl)-7H-pyrrolo[2,3-c]pyridazin-3-yl]butyl}-N-[(6-methylpyridin-3-yl)methyl]-1H-1,2,3-triazole-4-carboxamide], the IC50 in assay [1] was below 100 nM. The compound further yielded a concentration giving a half-maximal response (EC50) in assay [2] of 100 to 500 nM.
For `Cn1cnc(CNC(=O)c2cn(CCCCc3cc4cc(C5CC5)[nH]c4nn3)nn2)c1` [Example 45, 1-(4-{6-cyclopropyl-7H-pyrrolo[2,3-c]pyridazin-3-yl}butyl)-N-[(1-methyl-1H-imidazol-4-yl)methyl]-1H-1,2,3-triazole-4-carboxamide], the IC50 in assay [1] fell in the range of 100 to 500 nM. The same compound registered an EC50 in assay [2] of 500 to 5000 nM.
As to `CC(C)(C)OC(=O)NCc1cccc(CC(=O)Nc2nnc(CCCCc3cc4cc(Cc5ccccc5)[nH]c4nn3)s2)c1` [Example 59, tert-butyl N-{[3-({[5-(4-{6-benzyl-7H-pyrrolo[2,3-c]pyridazin-3-yl}butyl)-1,3,4-thiadiazol-2-yl]carbamoyl}methyl)phenyl]methyl}carbamate], in assay [1], the IC50 was below 100 nM. The concentration giving a half-maximal response (EC50) in assay [2] was below 100 nM.
Take `CC(C)(C)OC(=O)N1CC(c2cc3cc(CCCCn4cc(C(=O)NCc5cccc(OC(F)(F)F)c5)nn4)nnc3[nH]2)C1` [Example 105, tert-butyl 3-(3-{4-[4-({[3-(trifluoromethoxy)phenyl]methyl}carbamoyl)-1H-1,2,3-triazol-1-yl]butyl}-7H-pyrrolo[2,3-c]pyridazin-6-yl)azetidine-1-carboxylate]: in assay [1], the concentration for half-maximal inhibition (IC50) was below 100 nM. In assay [2], the EC50 is below 100 nM.
Take `O=C(NCc1ccc(C(F)(F)F)nc1)c1cn(CCCCc2cc3cc(C4CC4)[nH]c3nn2)nn1` [Example 40, 1-(4-{6-cyclopropyl-7H-pyrrolo[2,3-c]pyridazin-3-yl}butyl)-N-{[6-(trifluoromethyl)pyridin-3-yl]methyl}-1H-1,2,3-triazole-4-carboxamide]: the IC50 in assay [1] is below 100 nM. In assay [2], this compound came in with an EC50 of 500 to 5000 nM.
On to `O=C(NCC1CCOC1)c1nnc(CCCCc2cc3cc(Cc4ccccc4)[nH]c3nn2)s1` (stereo not drawn) [Example 82, 5-(4-{6-benzyl-7H-pyrrolo[2,3-c]pyridazin-3-yl}butyl)-N-(oxolan-3-ylmethyl)-1,3,4-thiadiazole-2-carboxamide], for which the half-maximal inhibitory concentration (IC50) in assay [1] was in the range of 100 to 500 nM. Also, the concentration for a half-maximal effect (EC50) in assay [2] is 500 to 5000 nM.
As for `Cc1ccc(CNC(=O)c2cn(CCCCc3cc4cc(C5CNC5)[nH]c4nn3)nn2)cn1` [Example 97, 1-{4-[6-(azetidin-3-yl)-7H-pyrrolo[2,3-c]pyridazin-3-yl]butyl}-N-[(6-methylpyridin-3-yl)methyl]-1H-1,2,3-triazole-4-carboxamide], the half-inhibitory concentration (IC50) in assay [1] was 100 to 500 nM. In assay [2], this compound returned an EC50 of 500 to 5000 nM.
As to `O=C(NCc1ccc(C(F)(F)F)nc1)c1cn(CCCCc2cc3c(-c4ccc(F)cc4F)c(C4CC4)[nH]c3nn2)nn1` [Example 217, 1-(4-(6-cyclopropyl-5-(2,4-difluorophenyl)-7H-pyrrolo[2,3-c]pyridazin-3-yl)butyl)-N-((6-(trifluoromethyl)pyridin-3-yl)methyl)-1H-1,2,3-triazole-4-carboxamide], the concentration for half-maximal inhibition (IC50) in assay [1] was below 100 nM. In assay [2], this compound came in with a concentration for a half-maximal effect (EC50) of 100 to 500 nM.
Take `Cc1ccc(CNC(=O)c2cn(CCCCc3cc4c(F)c(C5CC5)[nH]c4nn3)nn2)cn1` [Example 90, 1-(4-(6-cyclopropyl-5-fluoro-7H-pyrrolo[2,3-c]pyridazin-3-yl)butyl)-N-((6-methylpyridin-3-yl)methyl)-1H-1,2,3-triazole-4-carboxamide 2,2,2-trifluoroacetate]: in assay [1], the IC50 is below 100 nM. Also, the EC50 in assay [2] lay in the range of 500 to 5000 nM.

These data come from patent US20160002248A1, “GLS1 INHIBITORS FOR TREATING DISEASE” (Board of Regents, The University of Texas System, priority 2014, published 2016).
